Experiment [1] concerns the target BioA (7,8-diaminopelargonic acid synthase) (Escherichia coli, UniProt P12995). The experiment can be described thus: recombinant BioA activity, bioA auxotroph feeding assay at […]. Format: biochemical.
For experiment [2], the system named is E. coli MG1655. The experiment can be described thus: microbe, parasite or virus in culture. To be noted: Escherichia coli, MG1655, 16 h, read-out: MIC (μg/ml) ^a / −bio.

Each structure is given as a SMILES string. Converted amounts (≈) assume the structure as drawn. Some results are limits rather than exact numbers.

Sequence of BioA (7,8-diaminopelargonic acid synthase) (P12995 whole entry): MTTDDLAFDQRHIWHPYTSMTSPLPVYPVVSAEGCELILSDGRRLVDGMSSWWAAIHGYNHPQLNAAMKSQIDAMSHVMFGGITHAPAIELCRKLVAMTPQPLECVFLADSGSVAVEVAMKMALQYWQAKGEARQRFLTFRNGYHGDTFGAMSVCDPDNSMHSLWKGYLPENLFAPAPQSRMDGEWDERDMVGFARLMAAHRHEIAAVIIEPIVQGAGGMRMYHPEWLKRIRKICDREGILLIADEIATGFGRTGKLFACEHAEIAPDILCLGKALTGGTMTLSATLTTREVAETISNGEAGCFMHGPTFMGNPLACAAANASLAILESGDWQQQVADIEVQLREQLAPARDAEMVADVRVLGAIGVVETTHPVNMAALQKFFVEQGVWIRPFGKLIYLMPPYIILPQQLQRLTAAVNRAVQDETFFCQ

Regarding `NNC(=O)CSc1cccc([N+](=O)[O-])c1` [compound 5], the “% Inhibition ^b / 10 μM / 100” value in experiment [1] is on record as 84. Regarding `NNC(=O)CSc1ccc([N+](=O)[O-])cc1` [compound 6], the “% Inhibition ^b / 1 μM / 100” value in experiment [1] is listed as 66. On to `CCCC(=O)NN` [compound 21], for which the MIC in experiment [2] is above 256 µg/mL.

Consider `CC(=O)NN` [compound 23], for which the MIC in experiment [2] was 128 µg/mL (≈ 1730 µM).

For the origin of these results see PMC3970981 (Nature chemical biology, 2013).
